± gives the standard deviation of the averaged measurements.
Experiments:
DOXORUBICIN [1] = compound: T1, COc1cccc2c1C(=O)c1c(O)c3c(c(O)c1C2=O)C[C@@](O)(C(=O)CO)C[C@@H]3O[C@H]1C[C@H](N)[C@H](O)[C@H](C)O1 [DOXORUBICIN]; assay: surviving fraction relative to DMSO-only wells; higher = less growth inhibition; conditions: exposure time: 5 days
In short: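 After seeding at 250–500 cells per well in 384-well plates and a 24-hour wait, log-phase tumour cell lines were exposed without interruption for five days to inhibitors at 0.5, 1, 5, 10, 50, 100, 500 and 1000 nM. CellTiter-Glo luminescence was recorded after 10 minutes at room temperature. Viability is reported as surviving fraction, the luminescence normalised to the median of DMSO-only wells.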

[2] = compound: CCN(CC)CCCCNc1ncc2cc(-c3cc(OC)cc(OC)c3)c(NC(=O)NC(C)(C)C)nc2n1; assay: area under dose-response curve of surviving fraction (unscaled, Aref=0) (surviving fraction x log10(nM)); higher = more resistant; conditions: exposure time: 5 days; dose range 0.5-1000 nM
In short: (§1)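 Three screens per tumour cell line were run in 384-well plates at eight inhibitor concentrations from 0.5 to 1000 nM over five days. Surviving fractions, from CellTiter-Glo luminescence normalised to DMSO-only wells, were fitted with 3-parameter logistic curves in the drc R package. The reported area under the curve is the unscaled activity area. It spans log10 dose, and Aref is 0.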

LAPATINIB = compound: CS(=O)(=O)CCNCc1ccc(-c2ccc3ncnc(Nc4ccc(OCc5cccc(F)c5)c(Cl)c4)c3c2)o1 [LAPATINIB]; assay: as above; conditions: exposure time: 5 days; dose range 0.5-1000 nM
In short: as §1

DECITABINE = compound: Nc1ncn([C@H]2C[C@H](O)[C@@H](CO)O2)c(=O)n1 [DECITABINE]; assay: as above; conditions: exposure time: 5 days; dose range 0.5-1000 nM
In short: as §1

RESVERATROL = compound: Oc1ccc(/C=C/c2cc(O)cc(O)c2)cc1 [RESVERATROL]; assay: as above; conditions: exposure time: 5 days; dose range 0.5-1000 nM
In short: as §1

17-AAG = compound: C=CCNC1=C2C[C@@H](C)C[C@H](OC)[C@H](O)[C@@H](C)/C=C(\C)[C@H](OC(N)=O)[C@@H](OC)/C=C\C=C(/C)C(=O)NC(=CC1=O)C2=O [17-AAG]; assay: as above; conditions: exposure time: 5 days; dose range 0.5-1000 nM
In short: as §1

FLAVOPIRIDOL = compound: CN1CC[C@H](c2c(O)cc(O)c3c(=O)cc(-c4ccccc4Cl)oc23)[C@H](O)C1 [FLAVOPIRIDOL]; assay: as above; conditions: exposure time: 5 days; dose range 0.5-1000 nM
In short: as §1

DOXORUBICIN [3] = compound: T1, DOXORUBICIN; assay: as above; conditions: exposure time: 5 days; dose range 0.5-1000 nM
In short: as §1

SALINOMYCIN = compound: CC[C@@H](C(=O)[C@@H](C)[C@@H](O)[C@H](C)[C@@H]1O[C@@H]([C@@H](CC)C(=O)O)CC[C@@H]1C)[C@H]1O[C@]2(C=C[C@@H](O)[C@]3(CC[C@@](C)([C@H]4CC[C@](O)(CC)[C@H](C)O4)O3)O2)[C@H](C)C[C@@H]1C [SALINOMYCIN]; assay: as above; conditions: exposure time: 5 days; dose range 0.5-1000 nM
In short: as §1

VISMODEGIB = compound: CS(=O)(=O)c1ccc(C(=O)Nc2ccc(Cl)c(-c3ccccn3)c2)c(Cl)c1 [VISMODEGIB]; assay: as above; conditions: exposure time: 5 days; dose range 0.5-1000 nM
In short: as §1

FLUOROURACIL = compound: O=c1[nH]cc(F)c(=O)[nH]1 [FLUOROURACIL]; assay: as above; conditions: exposure time: 5 days; dose range 0.5-1000 nM
In short: as §1

2-METHOXYESTRADIOL = compound: COc1cc2c(cc1O)CC[C@@H]1[C@@H]2CC[C@]2(C)[C@@H](O)CC[C@@H]12 [2-METHOXYESTRADIOL]; assay: as above; conditions: exposure time: 5 days; dose range 0.5-1000 nM
In short: as §1

ABT-737 = compound: CN(C)CC[C@H](CSc1ccccc1)Nc1ccc(S(=O)(=O)NC(=O)c2ccc(N3CCN(Cc4ccccc4-c4ccc(Cl)cc4)CC3)cc2)cc1[N+](=O)[O-] [ABT-737]; assay: as above; conditions: exposure time: 5 days; dose range 0.5-1000 nM
In short: as §1

| Test System | surviving fraction (DOXORUBICIN [1]; 0.5 nM) | surviving fraction (DOXORUBICIN [1]; 1 nM) | surviving fraction (DOXORUBICIN [1]; 5 nM) | surviving fraction (DOXORUBICIN [1]; 10 nM) | surviving fraction (DOXORUBICIN [1]; 50 nM) | surviving fraction (DOXORUBICIN [1]; 100 nM) | surviving fraction (DOXORUBICIN [1]; 500 nM) | surviving fraction (DOXORUBICIN [1]; 1000 nM) | area under dose-response curve [2] | area under dose-response curve (LAPATINIB) | area under dose-response curve (DECITABINE) | area under dose-response curve (RESVERATROL) | area under dose-response curve (17-AAG) | area under dose-response curve (FLAVOPIRIDOL) | area under dose-response curve (DOXORUBICIN [3]) | area under dose-response curve (SALINOMYCIN) | area under dose-response curve (VISMODEGIB) | area under dose-response curve (FLUOROURACIL) | area under dose-response curve (2-METHOXYESTRADIOL) | area under dose-response curve (ABT-737) |
| --- | --- | --- | --- | --- | --- | --- | --- | --- | --- | --- | --- | --- | --- | --- | --- | --- | --- | --- | --- | --- |
| 22RV1 PROSTATE | 1.02 ± 0.018 | 0.917 ± 0.047 | 0.618 ± 0.055 | 0.416 ± 0.047 | 0.222 ± 0.03 | 0.119 ± 0.026 | 0.024 ± 0.001 | 0.0357 ± 0.0025 | 3.33 | 3.42 | 2.81 | 3.4 | 2.24 | 2.35 | 1.31 | 2.38 | 3.35 | 3.25 |  |  |
| 93VU HEADNECK | 1.03 ± 0.063 | 1.08 ± 0.11 | 1.12 ± 0.085 | 1.09 ± 0.06 | 0.697 ± 0.049 | 0.525 ± 0.046 | 0.249 ± 0.034 | 0.109 ± 0.016 |  | 2.8 | 3.07 | 3.7 | 2.32 | 2.13 | 2.39 | 2.79 |  | 3.04 | 3.08 |  |
| 143B BONE | 1 ± 0.018 | 1.02 ± 0.0085 | 0.957 ± 0.0099 | 0.827 ± 0.013 | 0.417 ± 0.027 | 0.2785 ± 0.00071 | 0.0605 ± 0.0035 | 1.008 ± 0.0092 | 3.04 |  |  |  | 2.38 |  | 2.11 | 3.23 | 3.22 |  |  |  |
| ASKA SYNOVIAL | 0.792 ± 0.014 | 0.5807 ± 0.0031 | 0.28 ± 0.0042 | 0.292 ± 0.007 | 0.204 ± 0.016 | 0.166 ± 0.0025 | 0.16 ± 0.0079 | 0.224 ± 0.0035 |  | 3.82 | 3.08 | 3.84 | 1.27 | 2.27 | 0.989 | 3.15 | 3.21 |  | 3.04 |  |
| BT20 BREAST | 1.1 ± 0.033 | 1.02 ± 0.11 | 0.823 ± 0.034 | 0.469 ± 0.07 | 0.187 ± 0.019 | 0.191 ± 0.025 | 0.042 ± 0.01 | 0.037 ± 0.0056 | 3.96 | 3.84 | 4.16 | 3.71 | 1.37 | 2.22 | 1.48 | 3.84 | 3.18 |  |  |  |
| CHLA90 AUTONOMIC GANGLIA | 1 ± 0.024 | 0.982 ± 0.024 | 0.866 ± 0.053 | 0.763 ± 0.041 | 0.414 ± 0.038 | 0.187 ± 0.026 | 0.054 ± 0.0035 | 0.0323 ± 0.0021 | 2.92 |  |  | 3.38 | 2.06 | 2.36 | 1.8 | 2.67 | 3.12 |  | 3.22 | 3.26 |
| CME SYNOVIAL | 1.14 ± 0.094 | 0.998 ± 0.15 | 0.567 ± 0.12 | 0.328 ± 0.037 | 0.237 ± 0.023 | 0.215 ± 0.016 | 0.203 ± 0.013 | 0.284 ± 0.036 | 3.88 | 4.25 | 2.82 | 4.4 | 1.9 | 2.35 | 1.52 | 2.88 | 3.77 |  |  | 4.41 |

— the supplement of paper PMC6045584
